# Source: the METLIN SMRT retention time set (Domingo-Almenara et al. 2019)
# Test: gradient 5% acetonitrile 3 min, to 50% in 2 min, to 85% in 15 min, held 3 min, 100 µL/min
# Conditions: column: Zorbax Extend-C18 2.1 x 50 mm; eluents: water / acetonitrile, 0.1% formic acid
# Procedure, shortened: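 Each retention time is based on an adduct peak selected computationally and verified by manual inspection. Measurements used HPLC–quadrupole time-of-flight mass spectrometry in positive and negative ionization mode on mixtures of ~100 pure standards. Chromatography ran on a Zorbax Extend-C18 column (2.1 × 50 mm, 1.8 μm) at 100 μL/min with water and acetonitrile, each containing 0.1% formic acid, and dead and dwell volumes of 40 μL and 900 μL.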
row,SMILES,RP-LC retention time
1,COc1ccc(-n2ccn3cc(-c4cccs4)nc3c2=O)cc1Cl,818 s
2,O=C(C1CCCN(c2ncnc3c2nc2n3CCCCC2)C1)N(Cc1ccco1)C1CCCCC1 (configuration not stated),1020 s
3,O=C(NC1CCCCC1)c1csc(-c2ccc(N3CCOCC3)nc2)n1,916 s
4,CC(=O)N1CCc2cc(N3CC(C(=O)NCc4ccco4)CC3=O)ccc21 (configuration not stated),640 s
5,O=C1C2N=NN(Cc3nc(-c4ccc5c(c4)OCO5)no3)C2C(=O)N1c1ccc2c(c1)CCC2 (configuration not stated),1000 s
6,Fc1ccccc1-c1nnc(CN2CCN(c3ccccn3)CC2)o1,596 s
7,Cc1noc(C)c1CN1CCC(NC(=O)c2cc(Cl)ccc2F)C1 (configuration not stated),570 s
8,CCNC(=O)c1nc(C(=O)NC2CC2)cs1,631 s
9,Cc1cnc(C(=O)NC2C[C@H]3CC[C@@H](C2)N3C(=O)c2cc(C)n(C)n2)cn1 (some centres not stated),614 s
10,CC(C)Cn1nc(CNC(=O)c2ccco2)c2ccccc21,852 s
11,CCC1(C(=O)Nc2ccc(OC)cc2)CCCCC(=O)N1 (configuration not stated),666 s
12,CCOC1CCOC2(CCN(C(=O)c3ccoc3)CC2)C1 (configuration not stated),686 s
13,CNC(=O)[C@@H]1C[C@H](Oc2cccnc2)CN1C(=O)Cn1c(=O)oc2ccccc21,582 s
14,COc1cc(OC)cc(N2C(=O)C3N=NN(Cc4nc(-c5ccc(OC)cc5OC)no4)C3C2=O)c1 (configuration not stated),865 s
15,CC1CCN(c2cc(-c3nc(-c4ccccc4)no3)c3ccccc3n2)CC1,1360 s
16,C=CCN(CC=C)c1nc(-c2ccc(Cl)cc2)nc2ccccc12,936 s
17,COc1ccc(N2CCN(c3nc(C(=O)NC4CC4)cs3)CC2)cc1,832 s
18,Cc1coc2cc3oc(=O)c(CC(=O)N4CCC(C(N)=O)CC4)c(C)c3cc12,654 s
19,O=C(Nc1ccc2cn[nH]c2c1)C1c2ccccc2Oc2ccccc21,795 s
20,Cc1cccc2nnc(N3CCCC(C(=O)NC4CCCC4)C3)n12 (configuration not stated),597 s
21,CC(C)NC(=O)N1CC(c2nc(-c3ccccc3)no2)C2(CCOCC2)C1 (configuration not stated),715 s
22,Cc1c(F)cccc1NC(=O)N1CC(Cc2nncn2C(C)C)C1,659 s

# The remaining lines, values ahead:
row,RP-LC retention time,SMILES
1,1190 s,CCc1ccc(-c2csc(Nc3ccc(F)cn3)n2)cc1
2,705 s,O=C(NCc1ccc(F)cc1)N1CCC(c2noc(-c3cnccn3)n2)C1 (configuration not stated)
3,949 s,Cc1[nH]c(C(=O)Nc2ccc(F)cc2F)c(C)c1S(=O)(=O)N1CCCCC1
4,783 s,Cc1cc(N2CCN(S(=O)(=O)c3cc(F)ccc3C)CC2)nc(N2CCCC2)n1
5,834 s,Cc1nn2c(CNS(=O)(=O)c3ccccc3F)c(-c3ccccc3)nc2s1
6,896 s,Cc1ccc(CNC(=O)NCCC2CCN(S(=O)(=O)c3ccc(F)cc3)CC2)cc1
7,718 s,Cc1nc2cccnc2n1CC1CCCN(S(=O)(=O)Cc2ccc(Cl)cc2)C1 (configuration not stated)
8,662 s,CCCNC(=O)C1CCCN(c2ccc(SCC(=O)Nc3ccc(F)c(F)c3)nn2)C1 (configuration not stated)
9,903 s,O=c1n(Cc2cc(F)cc(F)c2)nc2c(S(=O)(=O)N3CCCCC3)cccn12
10,620 s,CN(C)CCNC(=O)Cn1cnc2onc(-c3ccc(F)cc3)c2c1=O
11,1130 s,Cc1nn(-c2nc(-c3ccccc3)cs2)c(C)c1CC(=O)Nc1ccc(F)cc1
12,565 s,Cc1nc2ccc(NC(=O)c3ccc(Cn4ccnc4)cc3)cc2s1
13,574 s,CCN(CCCNC(=O)C1CCN(c2nccc3c(C)nn(C)c23)CC1)c1ccccc1
14,636 s,CCCNC(=O)C1CCN(c2ccc(SCC(=O)Nc3ccccc3C)nn2)CC1
15,700 s,Cc1ccccc1NC(=O)CC1COc2ccccc2NC1=O (configuration not stated)
